How the values were obtained:
[1] = tested on: A. fumigatus CEA10 reference strain; test: Fluconazole potentiator screen: MIC by CLSI microbroth dilution with and without fluconazole; format: cell-based, Aspergillus fumigatus; conditions: 18 h; for MIC: Aspergillus fumigatus, read-out: MIC (ug/mL) (−) Fluc; for MIC (ug/mL) (+) Fluc: with 32 μg/ml fluconazole, normoxia, GMM, 37 °C
[2] = tested on: Aspergillus fumigatus SrbA pathway; conditions: phenotype of SrbA pathway inhibition, previously published; cited from earlier work

| SMILES | MIC [1] [µg/mL] | MIC (ug/mL) (+) Fluc [1] [µg/mL] | MIC to fluconazole [2] [µg/mL] |
| --- | --- | --- | --- |
| O=S(=O)(NC1CCC(Cc2ccc(CN3CCOCC3)cc2)CC1)c1ccc(F)cc1 (stereo not shown) [MBX-8283] | > 22 | >22 |  |
| O=S(=O)(NC1CCN(Cc2ccc(CN3CCOCC3)cc2)CC1)c1ccc(F)cc1 [MBX-8284] | > 22 | >22 |  |
| O=C(c1ccsc1)N1CC2(CC(CCOc3ccncc3)C2)C1 [MBX-8285] | 4.11 | 2.05 |  |
| O=C(c1ccsc1)N1CC(Cc2ccc(COc3ccncc3)cc2)C1 [MBX-8305] | 9.1 | 4.50 |  |
| O=S(=O)(c1ccsc1)N1CC2(CC(CCOc3ccncc3)C2)C1 [MBX-8306] | 9.1 | 4.50 |  |
| O=S(=O)(c1ccsc1)N1CCc2cc(COc3ccncc3)ccc2C1 [MBX-8307] | 4.8 | 2.40 |  |
| O=C(c1ccsc1)N1CCc2cc(COc3ccncc3)ccc2C1 [MBX-8308] | 4.3 | 1.90 |  |
| O=C(c1ccsc1)N1CCC(Oc2ccc(COc3ccncc3)cc2)CC1 [MBX-8309] | 19 | 19.00 |  |
| O=S(=O)(c1cccs1)N1CCC2(CC1)CN(CCOc1ccncc1)CCO2 [MBX-8310] | 21 | 5.20 |  |
| O=S(=O)(NC1CC2(CC(Cc3ccc(CN4CCOCC4)cc3)C2)C1)c1ccc(F)cc1 (stereo not shown) [MBX-8311] | 19 | 22.00 |  |
| O=C(NC1CCN(Cc2ccc(COc3ccncc3)cc2)CC1)c1ccsc1 [MBX-8312] | > 20 | >20 |  |
| O=C(c1ccsc1)N1CCC(Cc2ccc(COc3ccncc3)nc2)CC1 [MBX-8323] | 2.4 | 1.20 |  |
| O=S(=O)(c1ccc(F)cc1)N1CCC(Cc2ccc(CN3CCOCC3)cc2F)CC1 [MBX-8324] | 1.2 | 0.17 |  |
| O=S(=O)(c1ccc(F)cc1)C1CCN(Cc2ccc(CN3CCOCC3)cc2)CC1 [MBX-8325] | > 20 | >20 |  |
| O=S(=O)(c1ccc(F)cc1)N1CC2(CC(Cc3ccc(CN4CCOCC4)cc3)C2)C1 [MBX-8345] | > 22 | 11.00 |  |
| Cc1cc(CN2CCOCC2)ccc1CC1CCN(S(=O)(=O)c2ccc(F)cc2)CC1 [MBX-8346] | 1.1 | 0.15 |  |
| O=S(=O)(c1ccc(F)cc1)N1CCC(Cc2ccc(CC3CCOCC3)cc2)CC1 [MBX-8347] | > 21 | >21 |  |
| O=C1c2ccsc2CCN1Cc1ccc(CCOc2ccncc2)cc1 [MBX-8354] | 9 | 14.00 |  |
| O=S(=O)(c1cccc(F)c1)N1CCC(C(O)c2ccc(CN3CCOCC3)cc2)CC1 (stereo not shown) [MBX-8355] | > 22 | >22 |  |
| O=S(=O)(c1ccc(F)cc1)N1CCC(Cc2ccc(CN3CCOCC3)c(F)c2)CC1 [MBX-8356] | 0.6 | 0.09 |  |
| CC(c1ccc(CC2CCN(S(=O)(=O)c3ccc(F)cc3)CC2)cc1)N1CCOCC1 (stereo not shown) [MBX-8357] | > 22 | 5.60 |  |
| CC(c1ccc(CC2CCN(S(=O)(=O)c3cccc(F)c3)CC2)cc1)N1CCOCC1 (stereo not shown) [MBX-8358] | 2.79 | 0.44 |  |
| CC(C1CCN(Cc2ccc(CN3CCOCC3)cc2)CC1)S(=O)(=O)c1ccc(F)cc1 (stereo not shown) [MBX-8359] | > 23 | >23 |  |

| SMILES | MIC [1] [µg/mL] | MIC (ug/mL) (+) Fluc [1] [µg/mL] | MIC to fluconazole [2] [µg/mL] |
| --- | --- | --- | --- |
| N=S(=O)(c1ccc(F)cc1)N1CCC(Cc2ccc(CN3CCOCC3)cc2)CC1 (stereo not shown) [MBX-8389] | > 43 | >43 |  |
| O=S(=O)(c1ccc(F)cc1)N1CCC(Cc2ccc(CN3CCOCC3)cc2)C1 (stereo not shown) [MBX-8390] | 2 | 0.40 |  |
| O=S(=O)(c1ccc(F)cc1)N1CCC(Cc2ccc(COc3ccncc3)cc2)C1 (stereo not shown) [MBX-8391] | 1 | 0.20 |  |
| O=C(c1ccc(C(F)(F)F)nc1)N1CCC(Cc2ccc(CN3CCOCC3)cc2)C1 (stereo not shown) [MBX-8392] | > 43 | >43 |  |
| O=S(=O)(c1ccc(C(F)(F)F)nc1)N1CCC(Cc2ccc(COc3ccncc3)cc2)C1 (stereo not shown) [MBX-8393] | > 47 | >47 |  |
| O=C(c1cccs1)N1CCC2(CC1)CC(CCOc1ccncc1)CCO2 (stereo not shown) [MBX-8394] | 19 | 9.70 |  |
| O=S(=O)(c1ccc(F)cc1)N1CCC(Cc2ccc(Cc3ccncc3)cc2)CC1 [MBX-8428] | 10.6 | 6.37 |  |
| O=C(c1ccsc1)N1CCC(Cc2ccc(CN3CCOCC3)cc2)C1 (stereo not shown) [MBX-8429] | 18.5 | 18.53 |  |
| O=C(c1ccsc1)N1CC[C@@H](Cc2ccc(COc3ccncc3)cc2)C1 [MBX-8431] | 3.78 | 1.14 |  |
| O=C(c1ccsc1)N1CC[C@H](Cc2ccc(COc3ccncc3)cc2)C1 [MBX-8432] | 4.16 | 1.51 |  |
| O=C(c1ccc(Cl)s1)N1CCC2(CC1)CC(CCOc1ccncc1)CCO2 (stereo not shown) [MBX-8433] | 2.53 | 0.84 |  |
| O=S(=O)(c1cccs1)N1CCC2(CCc3cc(Oc4ccncc4)ccc3O2)CC1 [MBX-8435] | > 22 | >22 |  |
| CN1CCN(Cc2ccc(CC3CCN(S(=O)(=O)c4ccc(F)cc4)CC3)cc2)CC1 [MBX-8436] | 4.46 | 0.45 |  |
| O=S(=O)(c1ccc(F)cc1)N1CCC(Cc2ccc(CN3CCN(CC(F)(F)F)CC3)cc2)CC1 [MBX-8438] | > 25 | >25 |  |
| CN(C)Cc1ccc(CC2CCN(S(=O)(=O)c3ccc(F)cc3)CC2)cc1 [MBX-8439] | 9.76 | 0.78 |  |
| O=C(c1ccsc1)N1CCC(Cc2ccc(COc3ccncn3)cc2)CC1 [MBX-8529] | 9.84 | >15 |  |
| O=C(c1ccsc1)N1CCC(Cc2ccc(COc3ccncc3)cn2)CC1 [MBX-8619] | 4.92 | 1.23 |  |
| O=S(=O)(c1ccc(F)cc1)N1CCC(Cc2ccc(CN3CCN4CCC[C@H]4C3)cc2)CC1 [MBX-8668] | 11.8 | 1.47 |  |
| O=S(=O)(c1ccc(F)cc1)N1CCC(Cc2ccc(CN3CCn4cncc4C3)cc2)CC1 [MBX-8684] | 7.38 | 1.30 |  |
| CN1CCc2cc(CC3CCN(S(=O)(=O)c4ccc(F)cc4)CC3)ccc2C1 [MBX-8700] | 8.97 | 1.26 |  |
| CN1CCN(c2ccc(CC3CCN(S(=O)(=O)c4ccc(F)cc4)CC3)cc2)CC1 [MBX-8701] | 0.67 | 0.19 |  |
| O=C(c1ccsc1)N1CCN(Cc2ccc(-c3ccncc3)cc2)CC1 [MBX-8702] | 1.14 | 0.32 |  |
| OC(Cn1cncn1)(Cn1cncn1)c1ccc(F)cc1F [fluconazole] |  |  | < 8 |

From patent US20260373138A1, “COMPOUNDS WITH ANTIFUNGAL PROPERTIES” (priority 2023, published 2026)
